From EPA's ToxValDB 9.5 (doi:10.2903/j.efsa.2011.2091) come the findings set out here.

In brackets after ≈: the same amount, converted by molar mass.

The subject of one series is Colinus virginianus. The following applies: acute, oral, mortality; for LC50: diet.
Another series deals with Daphnia magna. The following applies: chronic/long-term; duration: 21 days; reproduction.
In a further series the test system is Anas platyrhynchos. Conditions: reproductive; mortality.
In another series the test system is Lepomis macrochirus. The following applies: acute; duration: 96 hours; mortality.
In the next series the test system is Apis mellifera. Conditions: acute, mortality.
The next series concerns Oncorhynchus mykiss. Conditions: chronic/long-term; duration: 21 days; mortality.
The next series relates to Oryctolagus sp. The following applies: chronic; mortality.
A further series relates to Landoltia sp. Conditions: acute; duration: 14 days; frond number.
A further series deals with Bibionidae. The following applies: chronic/long-term; duration: 28 days; development.

For the compound `Nc1c(Cl)c(F)nc(OCC(=O)O)c1Cl` [Fluroxypyr], the LC50 was greater than 757 mg/kg-day with Colinus virginianus; 14.3 µg/mL (≈ 56.1 µM) with Lepomis macrochirus; 64.8 mg/kg in the series on Tagia sp. (acute, duration: 14 days, mortality); 12.3 µg/mL (≈ 48.2 µM) with Landoltia sp.. For the same compound, the LD50 in the series with Colinus virginianus is greater than 2000 mg/kg-day; with Apis mellifera (dermal), greater than 180 µg/piece; with Apis mellifera (oral, unspecified), 37.1 µg/piece. Besides, the NOEC in the series on Daphnia magna was determined as 56 mg/L; in the series on Anas platyrhynchos, 40.1 mg/kg-day; in the series on Tagia sp. (chronic/long-term, duration: 56 days), 3.05 mg/kg; in the series with Oncorhynchus mykiss it was 100 mg/L. Further, the NOAEL – broadly, the highest tested level that showed no adverse finding – in the series on Rattus norvegicus (chronic, duration: 2 years) amounted to 80 mg/kg-day; in the series with Rattus norvegicus (subchronic, oral), 80 mg/kg-day. Further, the NOEL with Oryctolagus sp. was 100 mg/kg-day.
As for `CCCCCCC(C)OC(=O)COc1nc(F)c(Cl)c(N)c1Cl` (centres undefined) [Fluroxypyr-meptyl], in the series with Colinus virginianus, the LC50 was greater than 1040 mg/kg-day. Besides, the LD50 in the series on Colinus virginianus was greater than 2000 mg/kg-day; in the series with Rattus norvegicus (acute, oral, mortality) it was greater than 2000 mg/kg-day. In addition, the values for the NOEC in the series on Anas platyrhynchos and in the series with Bibionidae were 57.8 mg/kg-day and 0.13 mg/L, respectively.
